# Experiments:
# Candida parapsilosis = experiment: Antifungal activity against Candida parapsilosis ATCC […] after 72 to 96 hrs by standard broth microdilution method; type: functional; conditions: Lodderomyces parapsilosis
# [1] = Selectivity index, ratio of IC50 for african green monkey Vero cells to IC50 for chloroquine-sensitive Plasmodium falciparum 3D7; type: toxicity, cell-based; conditions: read-out: Ratio IC50
# Sporothrix schenckii = experiment: Antifungal activity against Sporothrix schenckii clinical isolate after 72 to 96 hrs by standard broth microdilution method; type: functional
# Pseudomonas aeruginosa = experiment: Antimicrobial activity against Pseudomonas aeruginosa ATCC BAA-427 after 24 hrs by standard broth microdilution method; type: functional; conditions: ATCC BAA-427, 24 h
# Candida albicans = experiment: Antifungal activity against Candida albicans clinical isolate after 24 to 48 hrs by standard broth microdilution method; type: functional
# Escherichia coli = experiment: Antimicrobial activity against Escherichia coli ATCC 9637 after 24 hrs by standard broth microdilution method; type: functional; conditions: ATCC 9637, 24 h
# Cryptococcus neoformans = experiment: Antifungal activity against Cryptococcus neoformans clinical isolate after 24 to 48 hrs by standard broth microdilution method; type: functional
# [2] = test system: Trichophyton mentagrophytes; experiment: Antifungal activity against Trichophyton mentagrophytes clinical isolate after 72 to 96 hrs by standard broth microdilution method; type: functional
# Plasmodium falciparum [3] = experiment: Antiplasmodial activity against chloroquine-resistant Plasmodium falciparum K1 infected after 72 hrs by Malaria SYBR Green I-staining based fluorescence assay; type: functional, organism-based; conditions: K1, 72 h
# Klebsiella pneumoniae = experiment: Antimicrobial activity against Klebsiella pneumoniae ATCC 27736 after 24 hrs by standard broth microdilution method; type: functional; conditions: ATCC 27736, 24 h
# Plasmodium falciparum [4] = experiment: Antiplasmodial activity against chloroquine-sensitive Plasmodium falciparum 3D7 infected after 72 hrs by Malaria SYBR Green I-staining based fluorescence assay; type: functional, organism-based; conditions: 3D7, 72 h
# Aspergillus fumigatus = experiment: Antifungal activity against Aspergillus fumigatus clinical isolate after 72 to 96 hrs by standard broth microdilution method; type: functional
# Staphylococcus aureus = experiment: Antimicrobial activity against Staphylococcus aureus ATCC 25923 after 24 hrs by standard broth microdilution method; type: functional; conditions: ATCC 25923, 24 h
SMILES,MIC (Candida parapsilosis) [µg/mL],selectivity ratio [1],MIC (Sporothrix schenckii) [µg/mL],MIC (Pseudomonas aeruginosa) [µg/mL],MIC (Candida albicans) [µg/mL],MIC (Escherichia coli) [µg/mL],MIC (Cryptococcus neoformans) [µg/mL],MIC [2] [µg/mL],IC50 (Plasmodium falciparum [3]) [nM],MIC (Klebsiella pneumoniae) [µg/mL],IC50 (Plasmodium falciparum [4]) [nM],MIC (Aspergillus fumigatus) [µg/mL],MIC (Staphylococcus aureus) [µg/mL]
Clc1cccc(/N=C(\NCCNc2ccnc3cc(Cl)ccc23)Nc2ccc(Oc3cc(Cl)ccc3Cl)cc2)c1,25,53.2,3.12,> 50,3.12,6.25,12.5,6.25,> 817,> 50,62.8,50,12.5
Clc1ccc(Cl)c(Oc2ccc(N/C(=N/c3ccccc3)NCCCCNc3ccnc4cc(Cl)ccc34)cc2)c1,12.5,29.9,25,> 50,12.5,12.5,25,25,> 826,25,307,25,12.5
COc1ccc(Oc2ccc(N/C(=N/c3ccc(Cl)cc3)NCCCNc3ccnc4cc(Cl)ccc34)cc2)cc1,25,82.1,25,> 50,50,12.5,50,25,> 800,50,204,50,12.5
COc1ccc(Oc2ccc(N/C(=N/c3cccc(Cl)c3)NCCNc3ccnc4cc(Cl)ccc34)cc2)cc1,> 50,91.3,12.5,> 50,25,12.5,> 50,12.5,83.3,12.5,88.7,> 50,12.5
COc1ccc(Oc2ccccc2N/C(=N/c2cccc(Cl)c2)NCCCCNc2ccnc3cc(Cl)ccc23)cc1,50,176,12.5,> 50,12.5,12.5,50,12.5,> 1000,50,37.6,> 50,3.12
COc1ccc(Oc2ccc(N/C(=N/c3cccc(Cl)c3)NCCCCNc3ccnc4cc(Cl)ccc34)cc2)cc1,6.25,61.2,6.25,> 50,6.25,25,12.5,6.25,147,25,75.7,25,6.25
Clc1ccc(Cl)c(Oc2ccccc2N/C(=N/c2ccccc2)NCCCNc2ccnc3cc(Cl)ccc23)c1,50,116,12.5,> 50,12.5,12.5,25,12.5,176,12.5,74.7,> 50,3.12
COC(=O)/C(C)=C/c1ccc(Oc2ccc(N/C(=N/c3ccccc3)NCCNc3ccnc4cc(Cl)ccc34)cc2)cc1,12.5,158,12.5,> 50,1.52,12.5,12.5,6.25,65.9,> 50,70.3,25,25
COC(=O)/C(C)=C/c1ccc(Oc2ccc(N/C(=N/c3ccccc3)NCCCCNc3ccnc4cc(Cl)ccc34)cc2)cc1,25,91.8,25,> 50,25,25,25,25,76.7,50,94.4,> 50,50
COC(=O)/C(C)=C/c1ccc(Oc2ccc(N/C(=N/c3ccc(Cl)cc3)NCCCNc3ccnc4cc(Cl)ccc34)cc2)cc1,12.5,100,6.25,> 50,12.5,12.5,12.5,12.5,198,50,38.5,50,12.5
Clc1ccc(/N=C(\NCCNc2ccnc3cc(Cl)ccc23)Nc2ccccc2Oc2cc(Cl)ccc2Cl)cc1,> 50,16.5,25,> 50,25,12.5,> 50,50,> 800,> 50,58.1,> 50,6.25
Clc1cccc(/N=C(\NCCCCNc2ccnc3cc(Cl)ccc23)Nc2ccccc2Oc2cc(Cl)ccc2Cl)c1,25,7.7,25,50,25,12.5,50,25,432,12.5,149,50,1.56
Clc1ccc(/N=C(\NCCCCNc2ccnc3cc(Cl)ccc23)Nc2ccc(Oc3cc(Cl)ccc3Cl)cc2)cc1,12.5,756,6.25,> 50,12.5,6.25,12.5,12.5,209,12.5,29,25,6.25
COC(=O)/C(C)=C/c1ccc(Oc2ccccc2N/C(=N/c2ccc(Cl)cc2)NCCCCNc2ccnc3cc(Cl)ccc23)cc1,> 50,102,6.25,> 50,50,12.5,50,6.25,41.2,> 50,96.8,> 50,1.56
COc1ccc(Oc2ccc(N/C(=N/c3cccc(Cl)c3)NCCCNc3ccnc4cc(Cl)ccc34)cc2)cc1,12.5,158,6.25,> 50,6.25,6.25,25,6.25,236,12.5,49.6,25,6.25

# From ChEMBL document CHEMBL3232804, “Synthesis and evaluation of new diaryl ether and quinoline hybrids as potential antiplasmodial and antimicrobial agents” (Bioorg Med Chem Lett, 2014)
